ChEMBL document CHEMBL5465560, “Selectivity Literature for EUbOPEN Chemogenomic Library” (2024)

Assays:
[1] = target: Calcium/calmodulin-dependent protein kinase kinase 1 (Homo sapiens) (UniProt Q8N5S9); settings: at 10 µM
[2] = target: Tyrosine-protein kinase Fes/Fps (Homo sapiens) (UniProt P07332); settings: at 10 µM
[3] = target: High affinity nerve growth factor receptor (Homo sapiens, UniProt P04629); experiment: Selectivity interaction (SelectScreen Kinase Profiling (Thermo Fisher Scientific)) EUB0001558a NTRK1; settings: at 1 µM
[4] = target: Kappa-type opioid receptor (Homo sapiens, UniProt P41145); experiment: Selectivity interaction (GPCR panel (PDSP screen)) EUB0001079a OPRK1; settings: at 10 µM
[5] = target: T1, Serine/threonine-protein kinase ICK (Homo sapiens) (UniProt Q9UPZ9); experiment: Selectivity interaction (LanthaScreen Eu Kinase Binding Assay) EUB0001632a ICK; settings: at 10 µM
T1 sequence (whole entry): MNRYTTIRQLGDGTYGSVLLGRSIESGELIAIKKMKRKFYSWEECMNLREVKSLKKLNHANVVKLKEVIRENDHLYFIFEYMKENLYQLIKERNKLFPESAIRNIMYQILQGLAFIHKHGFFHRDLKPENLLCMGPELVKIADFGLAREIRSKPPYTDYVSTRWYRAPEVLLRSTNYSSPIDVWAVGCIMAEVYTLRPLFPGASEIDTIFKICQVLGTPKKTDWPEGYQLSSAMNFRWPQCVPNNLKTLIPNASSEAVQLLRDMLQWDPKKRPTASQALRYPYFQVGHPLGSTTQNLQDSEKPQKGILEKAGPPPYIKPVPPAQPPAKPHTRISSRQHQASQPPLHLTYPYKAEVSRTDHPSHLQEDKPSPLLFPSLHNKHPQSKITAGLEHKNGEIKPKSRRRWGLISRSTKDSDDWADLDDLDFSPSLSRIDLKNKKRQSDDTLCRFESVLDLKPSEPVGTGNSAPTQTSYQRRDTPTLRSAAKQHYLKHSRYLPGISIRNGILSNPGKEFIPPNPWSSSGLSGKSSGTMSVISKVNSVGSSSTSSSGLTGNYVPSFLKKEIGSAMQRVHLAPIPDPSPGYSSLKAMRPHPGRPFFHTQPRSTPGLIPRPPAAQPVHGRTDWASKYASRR

[6] = target: Tyrosine-protein kinase HCK (Homo sapiens) (UniProt P08631); experiment: Selectivity interaction (ActivX KiNativ screen (kinase selectivity in THP-1 cell lysates)) EUB0000639a HCK; format: subcellular; settings: lysate, at 5 µM
Chain of Tyrosine-protein kinase HCK (Homo sapiens) (P08631 2-526 limits assumed): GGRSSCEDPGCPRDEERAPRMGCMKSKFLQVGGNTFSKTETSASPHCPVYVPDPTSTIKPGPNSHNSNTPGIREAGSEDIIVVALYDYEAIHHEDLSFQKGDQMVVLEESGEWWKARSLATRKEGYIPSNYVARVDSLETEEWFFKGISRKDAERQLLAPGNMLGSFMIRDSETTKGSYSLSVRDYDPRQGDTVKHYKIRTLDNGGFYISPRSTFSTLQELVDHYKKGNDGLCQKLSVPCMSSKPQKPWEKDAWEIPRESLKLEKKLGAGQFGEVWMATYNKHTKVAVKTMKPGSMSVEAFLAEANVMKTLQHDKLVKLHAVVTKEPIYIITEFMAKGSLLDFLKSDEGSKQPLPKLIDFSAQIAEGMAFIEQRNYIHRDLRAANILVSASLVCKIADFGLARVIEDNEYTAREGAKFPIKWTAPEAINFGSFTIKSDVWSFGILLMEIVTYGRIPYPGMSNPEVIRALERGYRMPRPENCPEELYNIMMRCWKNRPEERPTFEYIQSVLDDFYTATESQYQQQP

[7] = target: Ribosomal protein S6 kinase alpha-4 (Homo sapiens) (UniProt O75676); experiment: Selectivity interaction (ActivX KiNativ screen (kinase selectivity in THP-1 cell lysates)) EUB0000639a RPS6KA4; format: subcellular; settings: lysate
Chain of Ribosomal protein S6 kinase alpha-4 (Homo sapiens) (O75676 whole entry, looked up): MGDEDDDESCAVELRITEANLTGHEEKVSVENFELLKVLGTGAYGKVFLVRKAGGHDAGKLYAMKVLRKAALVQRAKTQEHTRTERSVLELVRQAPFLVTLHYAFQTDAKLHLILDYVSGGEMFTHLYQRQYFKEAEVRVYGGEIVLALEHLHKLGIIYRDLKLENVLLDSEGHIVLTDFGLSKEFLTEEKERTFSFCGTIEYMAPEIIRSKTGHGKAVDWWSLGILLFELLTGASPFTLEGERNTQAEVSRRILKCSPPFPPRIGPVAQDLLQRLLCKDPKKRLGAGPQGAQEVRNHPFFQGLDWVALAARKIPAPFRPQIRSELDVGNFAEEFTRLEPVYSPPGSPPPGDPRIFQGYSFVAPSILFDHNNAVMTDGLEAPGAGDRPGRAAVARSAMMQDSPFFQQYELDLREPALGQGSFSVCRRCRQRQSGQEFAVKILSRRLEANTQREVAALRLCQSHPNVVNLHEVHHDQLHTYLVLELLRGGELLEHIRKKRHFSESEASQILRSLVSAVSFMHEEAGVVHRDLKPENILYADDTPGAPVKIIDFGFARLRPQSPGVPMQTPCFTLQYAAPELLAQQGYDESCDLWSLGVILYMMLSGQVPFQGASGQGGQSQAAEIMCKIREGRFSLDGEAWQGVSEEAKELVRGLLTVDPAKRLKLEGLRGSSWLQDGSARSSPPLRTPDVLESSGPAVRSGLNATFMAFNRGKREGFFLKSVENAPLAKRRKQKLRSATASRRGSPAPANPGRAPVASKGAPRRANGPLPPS

[8] = target: Receptor tyrosine-protein kinase erbB-3 (Homo sapiens) (UniProt P21860); experiment: Selectivity interaction (KinomeScan (DiscoverX)) EUB0000607a ERBB3; settings: at 10 µM
[9] = tested on: Proto-oncogene tyrosine-protein kinase receptor Ret (Homo sapiens), P07949 [M918T]; experiment: (§1) Selectivity interaction (KinomeScan (DiscoverX)) EUB0000607a RET; settings: at 10 µM
Chain of Proto-oncogene tyrosine-protein kinase receptor Ret (Homo sapiens), P07949 [M918T] (P07949 whole entry M918T): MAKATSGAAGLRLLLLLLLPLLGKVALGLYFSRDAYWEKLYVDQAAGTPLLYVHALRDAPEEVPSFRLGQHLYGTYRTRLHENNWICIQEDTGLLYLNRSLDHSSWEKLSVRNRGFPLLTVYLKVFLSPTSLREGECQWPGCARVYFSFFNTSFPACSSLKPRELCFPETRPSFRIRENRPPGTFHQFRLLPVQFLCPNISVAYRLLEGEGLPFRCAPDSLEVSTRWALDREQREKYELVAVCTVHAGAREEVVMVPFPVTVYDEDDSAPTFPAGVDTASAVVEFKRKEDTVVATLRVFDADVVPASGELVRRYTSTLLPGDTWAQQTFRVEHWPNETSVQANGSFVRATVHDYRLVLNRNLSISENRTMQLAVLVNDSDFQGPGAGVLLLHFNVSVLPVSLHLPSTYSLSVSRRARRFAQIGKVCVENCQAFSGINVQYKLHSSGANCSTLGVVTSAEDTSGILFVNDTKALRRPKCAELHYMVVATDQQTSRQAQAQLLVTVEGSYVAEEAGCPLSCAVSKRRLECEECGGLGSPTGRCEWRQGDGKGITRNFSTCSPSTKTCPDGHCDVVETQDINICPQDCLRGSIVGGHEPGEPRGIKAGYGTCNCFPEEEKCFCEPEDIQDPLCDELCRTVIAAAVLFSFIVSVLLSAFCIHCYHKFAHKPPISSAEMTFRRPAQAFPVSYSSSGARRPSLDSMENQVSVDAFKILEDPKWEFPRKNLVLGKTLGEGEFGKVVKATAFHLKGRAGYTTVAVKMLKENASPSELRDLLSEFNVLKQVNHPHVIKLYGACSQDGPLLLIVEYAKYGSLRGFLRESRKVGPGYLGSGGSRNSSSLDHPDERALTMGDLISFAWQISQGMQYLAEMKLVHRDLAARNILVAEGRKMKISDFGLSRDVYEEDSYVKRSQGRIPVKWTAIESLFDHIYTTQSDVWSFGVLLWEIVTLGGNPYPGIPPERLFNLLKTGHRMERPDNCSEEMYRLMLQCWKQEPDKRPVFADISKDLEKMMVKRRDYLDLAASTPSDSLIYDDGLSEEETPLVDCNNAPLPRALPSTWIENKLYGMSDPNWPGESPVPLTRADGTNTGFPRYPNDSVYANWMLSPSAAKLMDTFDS

[10] = tested on: Proto-oncogene tyrosine-protein kinase receptor Ret (Homo sapiens), P07949 [V804L]; experiment: as §1; settings: at 10 µM
[11] = tested on: Proto-oncogene tyrosine-protein kinase receptor Ret (Homo sapiens), P07949 [V804M]; experiment: as §1; settings: at 10 µM
Chain of Proto-oncogene tyrosine-protein kinase receptor Ret (Homo sapiens), P07949 [V804M] (P07949 whole entry V804M): as the sequence (P07949 whole entry M918T) above, with V804M, T918M counted along it

[12] = target: Proto-oncogene tyrosine-protein kinase receptor Ret (Homo sapiens, UniProt P07949); experiment: as §1; settings: at 10 µM
[13] = target: T2, Dual serine/threonine and tyrosine protein kinase (Homo sapiens) (UniProt Q6XUX3); experiment: Selectivity interaction (KinomeScan (DiscoverX)) EUB0000595a DSTYK; settings: at 10 µM
T2 sequence (whole entry): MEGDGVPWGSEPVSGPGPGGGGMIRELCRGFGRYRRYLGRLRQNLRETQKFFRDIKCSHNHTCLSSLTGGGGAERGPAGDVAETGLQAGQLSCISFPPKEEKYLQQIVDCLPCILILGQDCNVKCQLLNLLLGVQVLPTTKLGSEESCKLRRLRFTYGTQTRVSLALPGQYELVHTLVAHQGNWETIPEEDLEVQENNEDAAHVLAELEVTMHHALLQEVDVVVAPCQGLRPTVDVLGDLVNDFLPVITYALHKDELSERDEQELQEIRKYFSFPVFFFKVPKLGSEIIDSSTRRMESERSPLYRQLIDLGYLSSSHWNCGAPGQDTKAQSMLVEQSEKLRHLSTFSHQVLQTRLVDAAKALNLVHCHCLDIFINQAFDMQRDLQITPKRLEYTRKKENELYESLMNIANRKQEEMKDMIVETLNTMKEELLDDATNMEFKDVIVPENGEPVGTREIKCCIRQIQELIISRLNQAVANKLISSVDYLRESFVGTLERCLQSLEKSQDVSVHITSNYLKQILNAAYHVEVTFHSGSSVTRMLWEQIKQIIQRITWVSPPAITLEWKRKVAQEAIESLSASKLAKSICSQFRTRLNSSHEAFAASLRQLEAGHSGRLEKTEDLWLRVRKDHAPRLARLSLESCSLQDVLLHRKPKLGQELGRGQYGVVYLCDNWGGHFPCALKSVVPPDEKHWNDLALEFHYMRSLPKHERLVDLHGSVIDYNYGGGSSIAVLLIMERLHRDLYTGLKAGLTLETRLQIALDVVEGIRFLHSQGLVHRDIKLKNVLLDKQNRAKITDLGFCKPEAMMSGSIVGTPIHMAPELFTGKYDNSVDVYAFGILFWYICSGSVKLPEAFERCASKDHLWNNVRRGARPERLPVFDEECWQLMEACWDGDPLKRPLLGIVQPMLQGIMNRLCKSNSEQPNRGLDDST

[14] = target: T3, Alpha-2A adrenergic receptor (Homo sapiens) (UniProt P08913); experiment: Selectivity interaction (Eurofins CEREP Diversity Profile (receptors and ion channels)) EUB0000279b ADRA2A; settings: at 10 µM
T3 sequence (whole entry): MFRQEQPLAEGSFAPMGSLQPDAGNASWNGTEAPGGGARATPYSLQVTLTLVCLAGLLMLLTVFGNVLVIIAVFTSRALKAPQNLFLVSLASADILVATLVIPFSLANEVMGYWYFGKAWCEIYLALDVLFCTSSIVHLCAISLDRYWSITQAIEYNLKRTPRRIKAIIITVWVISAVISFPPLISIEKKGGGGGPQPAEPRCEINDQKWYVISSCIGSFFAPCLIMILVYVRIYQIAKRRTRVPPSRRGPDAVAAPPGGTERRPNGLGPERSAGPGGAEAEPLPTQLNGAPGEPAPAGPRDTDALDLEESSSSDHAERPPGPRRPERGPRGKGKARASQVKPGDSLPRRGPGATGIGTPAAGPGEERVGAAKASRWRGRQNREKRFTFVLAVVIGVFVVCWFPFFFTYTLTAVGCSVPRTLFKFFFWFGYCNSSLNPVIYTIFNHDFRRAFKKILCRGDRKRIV

Chain of Tyrosine-protein kinase Fes/Fps (Homo sapiens) (P07332 whole entry): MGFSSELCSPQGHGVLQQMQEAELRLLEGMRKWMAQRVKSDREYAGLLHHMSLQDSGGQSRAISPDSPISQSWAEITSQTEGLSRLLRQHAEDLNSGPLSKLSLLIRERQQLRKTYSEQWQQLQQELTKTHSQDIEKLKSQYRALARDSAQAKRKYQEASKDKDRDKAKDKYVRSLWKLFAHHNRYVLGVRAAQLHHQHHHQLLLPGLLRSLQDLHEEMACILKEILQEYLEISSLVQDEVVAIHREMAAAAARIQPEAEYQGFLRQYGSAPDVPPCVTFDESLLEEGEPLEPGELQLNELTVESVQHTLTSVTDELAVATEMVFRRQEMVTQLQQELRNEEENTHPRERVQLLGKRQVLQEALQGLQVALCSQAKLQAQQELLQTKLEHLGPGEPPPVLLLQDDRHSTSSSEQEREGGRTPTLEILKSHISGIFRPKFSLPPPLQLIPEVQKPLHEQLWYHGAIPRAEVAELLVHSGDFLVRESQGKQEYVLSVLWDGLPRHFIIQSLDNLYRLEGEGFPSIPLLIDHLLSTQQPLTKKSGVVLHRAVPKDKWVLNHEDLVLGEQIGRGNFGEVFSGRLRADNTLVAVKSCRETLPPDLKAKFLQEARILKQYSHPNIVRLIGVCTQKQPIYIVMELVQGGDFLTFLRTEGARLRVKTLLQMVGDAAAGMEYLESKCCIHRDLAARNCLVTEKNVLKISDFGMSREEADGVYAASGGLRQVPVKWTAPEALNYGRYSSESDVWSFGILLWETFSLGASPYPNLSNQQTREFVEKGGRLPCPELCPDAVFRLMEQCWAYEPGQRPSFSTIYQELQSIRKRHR
Chain of Calcium/calmodulin-dependent protein kinase kinase 1 (Homo sapiens) (Q8N5S9 whole entry, looked up): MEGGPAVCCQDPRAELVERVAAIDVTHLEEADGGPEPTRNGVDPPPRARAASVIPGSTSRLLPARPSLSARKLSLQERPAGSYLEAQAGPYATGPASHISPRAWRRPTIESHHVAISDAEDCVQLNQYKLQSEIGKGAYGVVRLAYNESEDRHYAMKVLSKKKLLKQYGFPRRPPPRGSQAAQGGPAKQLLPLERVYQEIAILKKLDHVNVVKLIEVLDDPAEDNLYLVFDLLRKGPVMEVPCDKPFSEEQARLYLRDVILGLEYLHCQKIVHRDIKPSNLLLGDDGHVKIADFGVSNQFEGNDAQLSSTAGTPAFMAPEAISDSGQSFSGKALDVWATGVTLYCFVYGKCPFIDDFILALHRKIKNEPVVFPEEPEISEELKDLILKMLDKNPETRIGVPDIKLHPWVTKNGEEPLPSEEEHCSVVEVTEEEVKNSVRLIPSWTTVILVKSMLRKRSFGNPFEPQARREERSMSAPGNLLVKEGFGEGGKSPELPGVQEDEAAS

For `CCN(CC)CCCCNc1ncc2cc(-c3cc(OC)cc(OC)c3)c(NC(=O)NC(C)(C)C)nc2n1`, the % of control [1] was 100% and the % of control [2] was 100%.
`CC(C)(O)[C@H](F)CN1Cc2cc(NC(=O)c3cnn4cccnc34)c(N3CCOCC3)cc2C1=O` showed a % of inhibition [3] of 71%.
For `Nc1cnc(N2CCc3cc(S(=O)(=O)Nc4c(F)cc(Cl)cc4F)cc(N4CCCC4=O)c32)nc1` [TP-020n], the % of inhibition [4] was 14.9%.
`Cn1cc(-n2cnc3c(NCc4nc5cc(Cl)c(Cl)cc5[nH]4)nc(N4CCOCC4)nc32)cn1` showed a % of inhibition [5] of -3.44%.
Compound `CC[C@@H]1[C@H](F)C(=O)N[C@@H]1COc1nccc2cc(C(N)=O)c(OC)cc12` [ZIMLOVISERTIB] has a % of inhibition [6] of -20.3%, a % of inhibition ([7]; at 0.01 µM) of -4.6% and a % of inhibition ([7]; at 0.04 µM) of -2.6%. The % of inhibition ([7]; at 0.2 µM) was -18.1%, the % of inhibition ([7]; at 1 µM) was -20.7% and the % of inhibition ([7]; at 5 µM) was -27.3%.
`CNC(=O)Nc1ccc(-c2nc(N3CC4CCC(C3)O4)c3cnn(C4CCC5(CC4)OCCO5)c3n2)cc1` was tested, and the % of control [8] was 100%, the % of control [9] was 73% and the % of control [10] was 85%. It also gave a % of control [11] of 100% and a % of control [12] of 91%.
`COCC(=O)NC/C=C/c1ccc2ncnc(Nc3ccc(Oc4ccc(C)nc4)c(C)c3)c2c1` [CP-724714] gave a % of control [13] of 75%.
Work on `CC(=O)c1cc(-c2ccccc2OCC2CC2)c2ncccn12` yielded a % of control [14] of 100%.
